This passage reports EC50 and CC50 results from patent publication US11505543B2, “4-oxo-3,4-dihydroquinazoline compounds as inhibitors of human immunodeficiency virus replication” (VIIV HEALTHCARE UK (NO.5) LIMITED, priority 2018, dated 2022).

What is called EC50 is the concentration that produces a half-maximal response. Broadly, the CC50 is the concentration at which the toxic effect on the cells reaches its halfway point.

Data set [1] has as its system recombinant NL4-3 virus (nef section replaced with Renilla luciferase gene) in MT-2 cells. Description: HIV cell culture assay (antiviral activity, luciferase readout). The data set is classed as cell-based. The conditions noted are these: Renilla, NL43, MT-2 cells infected for 4-5 days with recombinant NL4-3 Renilla luciferase virus, serial dilutions of compound. The gist of the method: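 Test compound in serial dilution was present while MT-2 cells were infected for 4–5 days with recombinant NL4-3 virus made in 293T cells. Antiviral activity was quantified as Renilla luciferase activity, read with a live-cell substrate. EC50 came from the median-effect equation.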

Data set [2] is described as follows: Compound cytotoxicity, XTT-based colorimetric assay. In kind it is cell-based. The conditions noted are these: human, uninfected MT2 cells, day 4, XTT. Put shortly: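 Run under the antiviral-assay protocol but without virus. Viability was read on day 4 and CC50 values were derived from the readout.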
(Tetrazolium assays rely on reduction of a dye to a coloured formazan, in cell work by metabolically active cells.)

Regarding `CC(C)c1ccc(-n2c([C@H](Cc3cc(F)cc(F)c3)NC(=O)Cn3nc(C(F)F)c4c3C(F)(F)[C@@H]3C[C@H]43)nc3cc(-c4nnn[nH]4)ccc3c2=O)cn1` [Example 7, 2-((3bS,4aR)-3-(difluoromethyl)-5,5-difluoro-3b,4,4a,5-tetrahydro-1H-cyclopropa[3,4]cyclopenta[1,2-c]pyrazol-1-yl)-N-((S)-2-(3,5-difluorophenyl)-1-(3-(6-isopropylpyridin-3-yl)-4-oxo-7-(1H-tetrazol-5-yl)-3,4-dihydroquinazolin-2-yl)ethyl)acetamide], the EC50 in data set [1] came out at 4130 nM. The same compound yielded a CC50 at 4 day in data set [2] of more than 1000 nM.

Consider `Cn1nc(NS(C)(=O)=O)c2c(Cl)ccc(-n3c([C@H](Cc4cc(F)cc(F)c4)NC(=O)Cn4nc(C(F)F)c5c4C(F)(F)[C@@H]4C[C@H]54)nc4cc(-c5ccc(Cl)cc5F)ccc4c3=O)c21` [Example 184, N-((S)-1-(3-(4-chloro-1-methyl-3-(methylsulfonamido)-1H-indazol-7-yl)-7-(4-chloro-2-fluorophenyl)-4-oxo-3,4-dihydroquinazolin-2-yl)-2-(3,5-difluorophenyl)ethyl)-2-((3bS,4aR)-3-(difluoromethyl)-5,5-difluoro-3b,4,4a,5-tetrahydro-1H-cyclopropa[3,4]cyclopenta[1,2-c]pyrazol-1-yl)acetamide], for which the EC50 in data set [1] worked out at 1.8 nM. In data set [2], this compound came in with a CC50 at 4 day of more than 500 nM.

On to `Cn1nc(NS(C)(=O)=O)c2c(Cl)ccc(-n3c([C@H](Cc4cc(F)cc(F)c4)NC(=O)Cn4nc(C(F)F)c5c4C(F)(F)[C@@H]4C[C@H]54)nc4cc(-c5ccc6c7c(ccnc57)CCO6)ccc4c3=O)c21` (atropisomer, axis not shown; (aR)) [Example 82, N-((S)-1-(3-(4-chloro-1-methyl-3-(methylsulfonamido)-1H-indazol-7-yl)-7-(2,3-dihydropyrano[4,3,2-de]quinolin-7-yl)-4-oxo-3,4-dihydroquinazolin-2-yl)-2-(3,5-difluorophenyl)ethyl)-2-((3bS,4aR)-3-(difluoromethyl)-5,5-difluoro-3b,4,4a,5-tetrahydro-1H-cyclopropa[3,4]cyclopenta[1,2-c]pyrazol-1-yl)acetamide], for which the EC50 in data set [1] was 7 nM. The CC50 at 4 day in data set [2] is more than 1000 nM.

For the compound `Cn1nc(NS(C)(=O)=O)c2c(Cl)ccc(-n3c([C@H](Cc4cc(F)cc(F)c4)NC(=O)Cn4nc(C(F)F)c5c4C(F)(F)[C@@H]4C[C@H]54)nc4cc(-c5ccc(C(=O)O)cc5)ccc4c3=O)c21` (atropisomer, axis not shown; (aR)) [Example 100, 4-(3-(4-chloro-1-methyl-3-(methylsulfonamido)-1H-indazol-7-yl)-2-((S)-1-(2-((3bS,4aR)-3-(difluoromethyl)-5,5-difluoro-3b,4,4a,5-tetrahydro-1H-cyclopropa[3,4]cyclopenta[1,2-c]pyrazol-1-yl)acetamido)-2-(3,5-difluorophenyl)ethyl)-4-oxo-3,4-dihydroquinazolin-7-yl)benzoic acid], in data set [1], the half-maximal effective concentration (EC50) was determined as 6.5 nM. This compound had a CC50 at 4 day in data set [2] of more than 1000 nM.

On to `Cc1cc(Cl)ccc1-c1ccc2c(=O)n(-c3ccc(S(=O)(=O)N4CCOCC4)cc3)c([C@H](Cc3cc(F)cc(F)c3)NC(=O)Cn3ccc(C4CC4)n3)nc2c1` [Example 50, (S)-N-(1-(7-(4-chloro-2-methylphenyl)-3-(4-(morpholinosulfonyl)phenyl)-4-oxo-3,4-dihydroquinazolin-2-yl)-2-(3,5-difluorophenyl)ethyl)-2-(3-cyclopropyl-1H-pyrazol-1-yl)acetamide], for which, in data set [1], the EC50 amounted to 70 nM. In addition, the CC50 at 4 day in data set [2] is more than 1000 nM.

Consider `Cn1nc(NS(C)(=O)=O)c2c(Cl)ccc(-n3c([C@H](Cc4cc(F)cc(F)c4)NC(=O)Cn4nc(C(F)F)c5c4C(F)(F)[C@@H]4C[C@H]54)nc4cc(-c5cccnc5)ccc4c3=O)c21` (atropisomer, axis not shown; (aR)) [Example 71, N-((S)-1-(3-(4-chloro-1-methyl-3-(methylsulfonamido)-1H-indazol-7-yl)-4-oxo-7-(pyridin-3-yl)-3,4-dihydroquinazolin-2-yl)-2-(3,5-difluorophenyl)ethyl)-2-((3bS,4aR)-3-(difluoromethyl)-5,5-difluoro-3b,4,4a,5-tetrahydro-1H-cyclopropa[3,4]cyclopenta[1,2-c]pyrazol-1-yl)acetamide], for which, in data set [1], the EC50 came out at 0.18 nM. For the same compound, in data set [2], the CC50 at 4 day was more than 1000 nM.

Turning to `Cn1nc(NS(C)(=O)=O)c2c(Cl)ccc(-n3c([C@H](Cc4cc(F)cc(F)c4)NC(=O)Cn4nc(C(F)F)c5c4C(F)(F)[C@@H]4C[C@H]54)nc4cc(-c5c(F)cccc5F)ccc4c3=O)c21` [Example 185, N-((S)-1-(3-(4-chloro-1-methyl-3-(methylsulfonamido)-1H-indazol-7-yl)-7-(2,6-difluorophenyl)-4-oxo-3,4-dihydroquinazolin-2-yl)-2-(3,5-difluorophenyl)ethyl)-2-((3bS,4aR)-3-(difluoromethyl)-5,5-difluoro-3b,4,4a,5-tetrahydro-1H-cyclopropa[3,4]cyclopenta[1,2-c]pyrazol-1-yl)acetamide], the 50% effective concentration (EC50) in data set [1] is 0.62 nM. Besides, the CC50 at 4 day in data set [2] is more than 1000 nM.

With `O=C(Cn1ccc(C2CC2)n1)N[C@@H](Cc1cc(F)cc(F)c1)c1nc2cc(-c3cccnc3)ccc2c(=O)n1-c1ccc(S(=O)(=O)N2CCOCC2)cc1` [Example 20, (S)-2-(3-cyclopropyl-1H-pyrazol-1-yl)-N-(2-(3,5-difluorophenyl)-1-(3-(4-(morpholinosulfonyl)phenyl)-4-oxo-7-(pyridin-3-yl)-3,4-dihydroquinazolin-2-yl)ethyl)acetamide], the EC50 in data set [1] was determined as 3.7 nM. In data set [2], this compound returned a CC50 at 4 day of more than 1000 nM.

In the case of `Cn1nc(NS(C)(=O)=O)c2c(Cl)ccc(-n3c(C(Cc4cc(F)cc(F)c4)NC(=O)Cn4nc(C(F)F)c5c4C(F)(F)[C@@H]4C[C@H]54)nc4cc(-c5ccccc5F)ccc4c3=O)c21` (single isomer, unassigned) [Example 1], the EC50 in data set [1] came to 209 nM. This compound registered a CC50 at 4 day in data set [2] of more than 1000 nM.

`CCS(=O)(=O)c1ccccc1-c1ccc2c(=O)n(-c3ccc(Cl)c4c(NS(C)(=O)=O)nn(CC(F)F)c34)c([C@H](Cc3cc(F)cc(F)c3)NC(=O)Cn3nc(C(F)F)c4c3C(F)(F)[C@@H]3C[C@H]43)nc2c1` [Example 177, N-((S)-1-(3-(4-chloro-1-(2,2-difluoroethyl)-3-(methylsulfonamido)-1H-indazol-7-yl)-7-(2-(ethylsulfonyl)phenyl)-4-oxo-3,4-dihydroquinazolin-2-yl)-2-(3,5-difluorophenyl)ethyl)-2-((3bS,4aR)-3-(difluoromethyl)-5,5-difluoro-3b,4,4a,5-tetrahydro-1H-cyclopropa[3,4]cyclopenta[1,2-c]pyrazol-1-yl)acetamide]: in data set [1], the EC50 is 0.053 nM. This compound also showed a half-maximal cytotoxic concentration (CC50) at 4 day in data set [2] of more than 500 nM.

Consider `Cc1cc(F)ccc1-c1ccc2c(=O)n(-c3ccc(S(=O)(=O)N4CCOCC4)cc3)c([C@H](Cc3cc(F)cc(F)c3)NC(=O)Cn3ccc(C4CC4)n3)nc2c1` [Example 102, (S)-2-(3-cyclopropyl-1H-pyrazol-1-yl)-N-(2-(3,5-difluorophenyl)-1-(7-(4-fluoro-2-methylphenyl)-3-(4-(morpholinosulfonyl)phenyl)-4-oxo-3,4-dihydroquinazolin-2-yl)ethyl)acetamide], for which, in data set [1], the EC50 is 48 nM. The compound further registered a CC50 at 4 day in data set [2] of more than 1000 nM.

Take `O=C(Cn1nc(C(F)F)c2c1C(F)(F)[C@@H]1C[C@H]21)N[C@@H](Cc1cc(F)cc(F)c1)c1nc2cc(-c3ncccn3)ccc2c(=O)n1-c1ccc(Cl)c2c(NS(=O)(=O)C3CC3)nn(CC(F)F)c12` (atropisomer, axis not shown; (aR)) [Example 127, N-((S)-1-(3-(4-chloro-3-(cyclopropanesulfonamido)-1-(2,2-difluoroethyl)-1H-indazol-7-yl)-4-oxo-7-(pyrimidin-2-yl)-3,4-dihydroquinazolin-2-yl)-2-(3,5-difluorophenyl)ethyl)-2-((3bS,4aR)-3-(difluoromethyl)-5,5-difluoro-3b,4,4a,5-tetrahydro-1H-cyclopropa[3,4]cyclopenta[1,2-c]pyrazol-1-yl)acetamide]: the EC50 in data set [1] amounted to 0.059 nM. In data set [2], this compound yielded a CC50 at 4 day of more than 500 nM.

On to `Cc1cccc(-c2ccc3c(=O)n(-c4ccc(Cl)c5c(NS(=O)(=O)C6CC6)nn(CC(F)F)c45)c([C@H](Cc4cc(F)cc(F)c4)NC(=O)Cn4nc(C(F)F)c5c4C(F)(F)[C@@H]4C[C@H]54)nc3c2)n1` [Example 158, N-((S)-1-(3-(4-chloro-3-(cyclopropanesulfonamido)-1-(2,2-difluoroethyl)-1H-indazol-7-yl)-7-(6-methylpyridin-2-yl)-4-oxo-3,4-dihydroquinazolin-2-yl)-2-(3,5-difluorophenyl)ethyl)-2-((3bS,4aR)-3-(difluoromethyl)-5,5-difluoro-3b,4,4a,5-tetrahydro-1H-cyclopropa[3,4]cyclopenta[1,2-c]pyrazol-1-yl)acetamide], for which the EC50 in data set [1] was 0.14 nM. In addition, the CC50 at 4 day in data set [2] was more than 500 nM.

Turning to `O=C(Cn1nc(C(F)F)cc1C(F)F)N[C@@H](Cc1cc(F)cc(F)c1)c1nc2cc(-c3ncccn3)ccc2c(=O)n1-c1ccc(Cl)c2c(NS(=O)(=O)C3CC3)nn(CC(F)F)c12` [Example 189, (S)-2-(3,5-bis(difluoromethyl)-1H-pyrazol-1-yl)-N-(1-(3-(4-chloro-3-(cyclopropanesulfonamido)-1-(2,2-difluoroethyl)-1H-indazol-7-yl)-4-oxo-7-(pyrimidin-2-yl)-3,4-dihydroquinazolin-2-yl)-2-(3,5-difluorophenyl)ethyl)acetamide], in data set [1], the EC50 was determined as 1.3 nM. The compound also returned a CC50 at 4 day in data set [2] of more than 500 nM.

Regarding `O=C(Cn1ccc(C2CC2)n1)N[C@@H](Cc1cc(F)cc(F)c1)c1nc2cc(-c3cccc(-c4ccccc4)c3)ccc2c(=O)n1-c1ccc(S(=O)(=O)N2CCOCC2)cc1` [Example 147, (S)-N-(1-(7-([1,1′-biphenyl]-3-yl)-3-(4-(morpholinosulfonyl)phenyl)-4-oxo-3,4-dihydroquinazolin-2-yl)-2-(3,5-difluorophenyl)ethyl)-2-(3-cyclopropyl-1H-pyrazol-1-yl)acetamide], in data set [1], the EC50 is 121 nM. Moreover, the CC50 at 4 day in data set [2] was more than 1000 nM.
